Key:
Assay type in all cases: physicochemical
[1] = Ligand protonation constants by potentiometric titration; conditions: [L] = 1·10^-3 M, T = 25°C, I = 0.1 M NaClO4
Method: Potentiometric titrations were performed using an automatic titrator system Titrando 905 (Metrohm) equipped with a 800 Dosino dosing unit and a microburet with a volume of 2 mL. A combined glass electrode was calibrated each day for hydrogen ion concentration by 0.1 M HClO4 with CO2-free 0.1 M NaOH solutions. A stream of high purity grade argon, presaturated with water vapor, passed over the surface of the solution cell, filled with 3 mL of the studied solution. For each system, a minimum of four independent titrations was performed. The purity of ligand and accurate concentration of ligand solution were determined before each experiment with the Gran method[68] by potentiometric titration of the 3 mL sample of the ligand, with [L] ∼ 1 × 10^–3 M. In separate potentiometric titrations, the metal-to-ligand ratio was 1:1, and the concentration of metal was 2 × 10^–3 M. The potentiometric data were refined to obtain the overall Fe(III)-FOXE and Ga(III)-FOXE derivative binding constants (logβFe(III)L, logβGa(III)L). […]
Ligand’s protonation constants
The acid-base properties of investigated ligands were studied by potentiometric technique. The optimized logβ values defined by equations (S1) and (S2) were calculated using […] 1 […]
or Hyperquad 20062 programs (Table S4). For the sake of simplicity charges are omitted in all chemical equilibria given here.
Table S4. Protonation (logβ H) constants for studied ligandsa […]
aConstants determined from potentiometric titrations. Conditions: [L] = 1·10^-3 M, T = 25°C, I = 0.1 M NaClO 4, b Ref 3 […]

[2] = Fe(III) complex stability constants by potentiometric and pH-dependent UV–vis titrations; conditions: I = 0.1 M NaClO4; for logβ[FeHL]+ / logβ[FeL] / pKNHOH of Fe(III) complex: M:L 1:1, T = 25°C; for logβFe(III)L: potentiometric [L] = 1 × 10^–3 M and UV–vis 5 × 10^–5 M, M:L 1:1, T = 25 °C
[3] = Cyclic voltammetry of Fe(III)-FOXE derivative complexes (redox potential, Fe(II) stability constants); conditions: for E1/2 vs NHE: CV; for E1/2 vs NHE / logβFe(II): [L] = 2 × 10^–3 M, M:L 1:1, pH = 7, T = 25 °C; for E°complex: [Fe(III)] = 2·10^-3 M, M:L ratio 1:1, pH = 7, T = 25°C, I = 0.1M NaClO4, glass-carbon working electrode; for logβFe(II): calculated from CV measurement
Method: Redox chemistry of Fe(III) species was determined in cyclic voltammetry (CV) assays. […] We have obtained quasireversible voltammograms for Fe(III)-FOXE analog complexes (Figure S8), with ΔE ranging from −369 mV to −470 mV. The values of E1/2 (Table 1) were recalculated vs normal hydrogen electrode (NHE). To ensure that only fully hexacoordinated complexes [FeL] were characterized, experiments were carried out at fixed pH = 7 where this form is dominating in solution. Higher strength of the complex (larger pM value) correlates to lower redox potential. This behavior was in agreement with previously reported data[61],[62] for similar complexation systems.
Redox potentials for Fe(III)-FOXE derivatives were determined using cyclic voltammetry with a VA 797 Computrace Voltammeter (Metrohm) equipped with glass-carbon, AgCl/Cl, and platinum wire electrodes. Concentration of the measured samples was [Fe(III)] = 2 × 10^–3, M:L ratio 1:1, at 25.0 ± 0.1 °C; pH 7.0 was provided by addition of a suitable amount of NaOH under control of a pH meter. The scan range was from −0.3 V to −1 V in a cycle: Fe(III)–FOX [drawing 1] Fe(II)–FOX [drawing 2] Fe(III)–FOX. Received data (Figure S8) was standardized for the NHE electrode. The electrochemical data were refined to obtain the overall Fe(II)-FOXE derivative binding constant (logβFe(II)L^–) by implementing the Nernst equation (S1).
Figure S8. CV voltammograms used to calculate (logβ) constants for studied complexes a with
Fe(II) ions: a) FOX 2-2, b) Fe-FOX 2-3, c) FOX 2-4, d) FOX 2-5, e) FOX 3-5
aConditions: [Fe(III)] = 2·10^-3 M, M:L ratio 1:1, pH = 7, T = 25°C, I = 0.1M NaClO 4 on glass-carbon working
For each complex the stability constant for Fe(II)-analog was calculated using eq. S10
E complex ― Eaq = ―59.15log (βII) (S10)
Table S9. E 1/2 and stability (logβ) constants for studied complexes with Fe(II) ions a […]

[4] = UV-Vis pH-dependent titrations, 1·10^-4 M
[5] = potentiometric, [L] = 1·10^-3 M

Row | SMILES | protonation constant logβ, H2L + H+ ↔ H3L [1] | protonation constant logβ, HL + H+ ↔ H2L [1] | protonation constant logβ, L + H+ ↔ HL [1] | logβ[FeHL]+ [2, 4] | logβFe(III)L [2] | logβ[FeL] [2, 5] | pKNHOH of Fe(III) complex [2, 5] | E1/2 vs NHE [3] | E°complex [3] | logβFe(II) [3] | logβ[FeL] [2, 4] | pKNHOH of Fe(III) complex [2, 4]
1 | O=C1CCN(O)C(=O)CCNC(=O)CCN(O)C(=O)CCNC(=O)CCN(O)C(=O)CCN1 [FOX 2-2] | 27.62(2) | 19.28(1) | 9.97(1) | 30.64 (6) | 25.92(8) | 25.92 (8) | 4.72 | –369 mv | -369 mV | 7.48 | – | –
2 | O=C1CCCN(O)C(=O)CCNC(=O)CCCN(O)C(=O)CCNC(=O)CCCN(O)C(=O)CCN1 [FOX 2-3] | 27.71(1) | 19.27(1) | 9.94(1) | 30.44 (5) | 27.22(2) | 27.22 (2) | 3.22 | –432 mv | -432 mV | 7.54 | 26.70 (9) | 3.74
3 | O=C1CCCCN(O)C(=O)CCNC(=O)CCCCN(O)C(=O)CCNC(=O)CCCCN(O)C(=O)CCN1 [FOX 2-4] | 27.64(1) | 19.21(1) | 9.93(1) | 30.83 (4) | 28.71(7) | – | – | –426 mv | -426 mV | 9.12 | 28.71 (7) | 2.12

Next, values leading:

Row | protonation constant logβ, H2L + H+ ↔ H3L [1] | protonation constant logβ, HL + H+ ↔ H2L [1] | protonation constant logβ, L + H+ ↔ HL [1] | logβ[FeHL]+ [2, 4] | logβFe(III)L [2] | logβ[FeL] [2, 5] | pKNHOH of Fe(III) complex [2, 5] | E1/2 vs NHE [3] | E°complex [3] | logβFe(II) [3] | logβ[FeL] [2, 4] | pKNHOH of Fe(III) complex [2, 4] | SMILES
4 | 26.53(1) | 19.09(1) | 9.86(1) | – | – | – | – | –452 mv | -452 mV | 11.29 | 31.32 (8) | – | O=C1CCCCCN(O)C(=O)CCNC(=O)CCCCCN(O)C(=O)CCNC(=O)CCCCCN(O)C(=O)CCN1 [FOX 2-5]
5 | 27.79(1) | 19.53(1) | 10.19(1) | – | – | 28.81 (1) | 2.32 | –416 mv | -416 mV | 8.48 | 28.59 (3) | 2.54 | O=C1CCCCCN(O)C(=O)CCCNC(=O)CCCCCN(O)C(=O)CCCNC(=O)CCCCCN(O)C(=O)CCCN1 [FOX 3-5]
